Test results taken from ChEMBL document CHEMBL1201862, “PubChem BioAssay data set” (2004).
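Protocol summary: plate cells (96-well), add compound at 5 concentrations, incubate 48 h, interpolate endpoints linearly. GI50: concentration for 50% inhibition of growth.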 Active and inactive are the calls of the source. No stated cut-off is given here; in the data, active = GI50 up to about 1.1 µM and inactive = higher.

What was measured:
Test in all cases: growth of human tumour cells (NCI), 48 h
LOX IMVI = tested on: LOX IMVI
UO-31 = tested on: UO-31
SW-620 = tested on: SW-620
EKVX = tested on: EKVX
COLO 205 = tested on: COLO 205
UACC-62 = tested on: UACC-62
HT-29 = tested on: HT-29
M14 = tested on: M14
Malme-3M = tested on: Malme-3M
OVCAR-5 = tested on: OVCAR-5
MOLT-4 = tested on: MOLT-4
SN12C = tested on: SN12C
SK-MEL-28 = tested on: SK-MEL-28
RXF 393 = tested on: RXF 393
SK-OV-3 = tested on: SK-OV-3
SNB-19 = tested on: SNB-19
HOP-92 = tested on: HOP-92

Measured: GI50

CCCCN(CC)CC(C(C)=O)c1c(O)c2ccccc2oc1=O (configuration not stated)
inactive: LOX IMVI > 100 µM | UO-31 > 100 µM | SW-620 > 100 µM | EKVX > 100 µM | COLO 205 > 100 µM | UACC-62 > 100 µM | HT-29 > 100 µM | M14 > 100 µM | Malme-3M > 100 µM | OVCAR-5 > 100 µM | MOLT-4 > 100 µM | SN12C > 100 µM | SK-MEL-28 > 100 µM | RXF 393 > 100 µM | SK-OV-3 > 100 µM | SNB-19 > 100 µM

C=CC1(C(=O)O)CCC(C(C)(C)C)CC1 (configuration not stated)
inactive: UO-31 > 100 µM | SW-620 > 100 µM | HOP-92 > 100 µM | EKVX > 100 µM | COLO 205 > 100 µM | UACC-62 > 100 µM | HT-29 > 100 µM | M14 > 100 µM | Malme-3M > 100 µM | OVCAR-5 > 100 µM | MOLT-4 > 100 µM | SN12C > 100 µM | RXF 393 > 100 µM | SK-OV-3 > 100 µM | SNB-19 > 100 µM

C1=Cc2nc1c(-c1ccncc1)c1ccc([n-]1)c(-c1ccncc1)c1nc(c(-c3ccncc3)c3ccc([n-]3)c2-c2ccncc2)C=C1.[Zn+2]
inactive: LOX IMVI > 100 µM | UO-31 > 100 µM | SW-620 > 100 µM | HOP-92 > 100 µM | EKVX > 100 µM | COLO 205 > 100 µM | UACC-62 > 100 µM | HT-29 > 100 µM | M14 > 100 µM | Malme-3M > 100 µM | OVCAR-5 > 100 µM | MOLT-4 > 100 µM | SN12C > 100 µM | SK-MEL-28 > 100 µM | SK-OV-3 > 100 µM | SNB-19 > 100 µM

O=C(COc1ccccc1Cl)N1N=C(c2ccc(Cl)cc2)CC1(O)c1ccccc1 (configuration not stated)
inactive: LOX IMVI > 100 µM | UO-31 > 100 µM | SW-620 > 100 µM | HOP-92 > 100 µM | COLO 205 > 100 µM | UACC-62 > 100 µM | HT-29 > 100 µM | M14 > 100 µM | Malme-3M > 100 µM | OVCAR-5 > 100 µM | MOLT-4 > 100 µM | SN12C > 100 µM | SK-MEL-28 > 100 µM | SK-OV-3 > 100 µM | SNB-19 > 100 µM

Cc1ccc(S(=O)(=O)OCC23CCC(C4CC42)C2CC23)cc1 (configuration not stated)
inactive: LOX IMVI > 100 µM | UO-31 44.2 µM | SW-620 > 100 µM | HOP-92 29.2 µM | COLO 205 95.9 µM | UACC-62 65.6 µM | HT-29 43.8 µM | M14 > 100 µM | Malme-3M 75.5 µM | OVCAR-5 > 100 µM | MOLT-4 50.8 µM | SN12C > 100 µM | SK-MEL-28 > 100 µM | SK-OV-3 > 100 µM | SNB-19 > 100 µM

N#CC(c1ccccc1)c1nc2ccc(N)cc2[n+]([O-])c1C(C#N)c1ccccc1 (configuration not stated)
inactive: LOX IMVI 64.9 µM | UO-31 68.2 µM | SW-620 57.4 µM | EKVX > 100 µM | COLO 205 76.4 µM | UACC-62 47.3 µM | HT-29 58.7 µM | M14 86.7 µM | Malme-3M 99.5 µM | OVCAR-5 > 100 µM | MOLT-4 53.7 µM | SN12C 79.1 µM | SK-MEL-28 > 100 µM | RXF 393 38.9 µM | SK-OV-3 > 100 µM | SNB-19 > 100 µM

CCOC(=O)C(C(=O)c1ccccc1-c1ccccc1C(=O)O)=P(c1ccccc1)(c1ccccc1)c1ccccc1
inactive: LOX IMVI 20.3 µM | UO-31 > 10 µM | SW-620 31.3 µM | EKVX 32.9 µM | COLO 205 19.1 µM | UACC-62 17.4 µM | HT-29 25 µM | M14 38.5 µM | Malme-3M 22.4 µM | MOLT-4 24.2 µM | SN12C 30.5 µM | SK-MEL-28 18.7 µM | RXF 393 37.2 µM | SNB-19 25.8 µM
